According to patent US9603836B2, “Pyrrolidine-2, 5-dione derivatives, pharmaceutical compositions and methods for use as IDO1 inhibitors” (ITEOS THERAPEUTICS, priority 2014, dated 2017):

Legend:
[1] = tested on: Kynurenine; experiment: In-vivo inhibition of blood kynurenine levels in healthy mice; parameters: species or system mouse; details: two hours
Protocol: The compounds of the present invention reduce the amount of Kynurenine in healthy mouse blood.
Briefly, mice were treated with either a suspension of one of the compounds of the present invention in 0.5% hydroxypropyl methylcellulose (HPMC) K4M/0.25% Tween 20 at different doses, or with a vehicle control (0.5% HPMC K4M/0.25% Tween 20), by the oral route by gavage (dosing volume 5 mL/kg, 10 mice per group). After two hours, blood was harvested, plasma was prepared and the amount of Kynurenine present was determined by LC-MS-MS (HPLC column Unison UK-Phenyl, 75×4.6, 3 μm, flow rate 0.8 mL/min, 4 minutes gradient from water+0.2% acetic acid to methanol+0.1% formic acid, retention time 2.7 min; API4000™ MS-MS system from AB Sciex, ESI+ mode, parent ion 209.2, daughter ion 94.1).

[2] = tested on: Kynurenine; experiment: Inhibition of tryptophan degradation in 4T1 tumor tissue; assay type: in vivo, Balb/c mice; details: 200 mg/kg oral twice per day, 4 h after administration
Protocol: Compounds of this invention are capable of lowering kynurenine concentration within mouse tumors, for example 4T1 syngeneic tumors of Balb/c mice implanted orthotopically in the mammary gland. One hundred thousand 4T1 breast cancer cells were implanted orthotopically within the mammary gland of 7 weeks old Balb/c mice (day 0). Animals were randomized based on tumor size when tumor average reached 60 mm^3 (day 6) into different treatment cohorts (n=10/group). Animals were treated with Methocel vehicle from day 6 to 26 until tumors reached a size comprised between 1500 and 2000 mm^3. […] The tumor was removed, weighted and frozen on dry ice. Tumors were analyzed by LC/MS-MS for Kynurenine concentration.

[3] = tested on: PancO2 tumors; experiment: In vivo efficacy in PancO2 pancreatic cancer syngeneic model; parameters: species or system C57/B16 mice; details: PancO2, 200 mg/kg BID oral
Protocol: In vivo efficacy studies of the Compounds of the present invention were performed on PancO2 syngeneic tumor model of C57/B16 mice implanted subcutaneously. Five millions PancO2 pancreas cancer cells were implanted subcutaneously to 7 weeks old C57/B16 mice (day 0). Animals were randomized based on tumor size when tumor average reached 60 mm^3 (between day 10 and 12) into different treatment cohorts. The Compound was administered orally twice per day (approximately at 9 am and 5 pm) starting the day of randomization. The Compound was suspended into Methocel vehicle and sonicated before oral administration to animals using gavage needles. Treatment was administered daily until the end of the study. All experimental animals were monitored for body weight changes weekly. Tumor volume was measured weekly using a caliper device and calculated with the following formula: Tumor volume=0.5×(length×width^2). Studies were terminated before tumor volumes reached 2000 mm. TGI (% tumor growth inhibition) was determined as
Treatment was administered daily until the end of the study. Tumor volume was measured weekly using a caliper device and calculated with the following formula: Tumor volume=0.5×(length×width^2). Mice were considered as dead when tumor size reached 400 mm^3. […] SEM refers to standard error of measurement.

[4] = tested on: CT26 tumors; experiment: Tumor growth inhibition in CT26 colon syngeneic mouse tumor model; assay type: in vivo, Balb/c mice
Excerpt: (§1) In the present study, CT26 syngeneic tumors were implanted subcutaneously in Balb-c mice. More particularly, Five hundred thousand (500,000) CT26 colon carcinoma cancer cells [CT26.WT, available from the ATCC® CRL-2628™] were implanted subcutaneously in 7 weeks old Balb/c mice (day 0). Animals were randomized based on tumor size when tumor average reached 150 mm^3 (day 11) into different treatment cohorts (n=10/group). […] The tumor was removed, weighted and frozen on dry ice. Tumors were analyzed by LC/MS-MS for Kynurenine concentration.
In a separate study, anti-tumor efficacy of IDO-1 inhibition was tested in the colon syngeneic mouse tumor model CT26 with a range of different treatment regimens. The model was essentially as described above, except that 1×10^6 cells in phosphate buffered saline (PBS) were implanted subcutaneously in the flank of 8 week old Balb/c females on day 0 (10 in each group). Mice were randomized into treatment groups (100 mg/kg BID, 200 mg/kg BID or 600 mg/kg BID) based on tumor size on day 9 when treatment started. The results are shown the following table and in FIG. 7.

[5] = tested on: Kynurenine; experiment: Inhibition of tryptophan degradation in CT26 tumor tissue; assay type: in vivo, Balb/c mice; details: 200 mg/kg oral twice per day, 2 h after administration
Excerpt: as §1

[6] = tested on: 4T1 tumors; experiment: In vivo efficacy in 4T1 breast cancer syngeneic model; parameters: species or system Balb/c mice; details: 4T1, 100 mg/kg BID oral
Protocol: In vivo efficacy studies for Compounds of the present invention were performed on 4T1 syngeneic tumor model of Balb/c mice implanted orthotopically in the mammary gland. One hundred thousand 4T1 breast cancer cells (ATCC® CRL-2539™)] were implanted orthotopically within the mammary gland of 7 weeks old Balb/c mice (day 0). Animals were randomized based on tumor size when tumor average reached 60 mm^3 (between day 7 and 11) into different treatment cohorts. The Compound of the present invention was administered orally twice per day (approximately at 9 am and 5 pm) starting the day of randomization. The Compounds were suspended into Methocel™ cellulose ether vehicle and sonicated before oral administration to animals using gavage needles. Treatment was administered daily until the end of the study. All experimental animals were monitored for body weight changes twice weekly. Tumor volume was measured twice a week by a caliper device and calculated with the following formula: Tumor volume=0.5×(length×width^2). Studies were terminated before tumor volumes reached 2000 mm. TGI (% tumor growth inhibition) was determined as […]

Question: With `O=C1CC(c2c[nH]c3ccc(F)cc23)C(=O)N1` (racemic) [Compound 1, 3-(5-fluoro-1H-indol-3-yl)pyrrolidine-2,5-dione] as the compound, how does the “Kynurenine concentration in plasma (average ± standard error of the mean)” value ([1]; 100 mg/kg oral) read?
Answer: 111.1 ± 27.0 ng/mL

Question: And the “inhibition of circulating Kynurenine” value ([1]; 100 mg/kg oral)?
Answer: 41%

Question: And the “Kynurenine concentration in plasma (average ± standard error of the mean)” value ([1]; 200 mg/kg oral)?
Answer: 77.7 ± 9.2 ng/mL

Question: And the “inhibition of circulating Kynurenine” value ([1]; 200 mg/kg oral)?
Answer: 59%

Question: And the “Kynurenine concentration (ng/g tumor) Average ± SEM” value [2]?
Answer: 417.2 ± 55.7 ng/g tumor

Question: What about the “reduction of Kynurenine concentration” value [2] of the same compound?
Answer: 47%

Question: What about the “Mean tumor volume on day 42” value [3] of the same compound?
Answer: 457.0 mm^3

Question: And the “TGI (Tumor growth inhibition)” value ([3]; day 42)?
Answer: 26.2%

Question: And the “% TGI (D15)” value ([4]; CT26, 100 mg/kg BID)?
Answer: 29%

Question: And the “% TGI (D17)” value ([4]; CT26, 100 mg/kg BID)?
Answer: 33%

Question: What about the “% TGI (D20)” value ([4]; CT26, 100 mg/kg BID) of the same compound?
Answer: 20%

Question: What about the “% TGI (D15)” value ([4]; CT26, 200 mg/kg BID) of the same compound?
Answer: 38%

Question: What about the “% TGI (D17)” value ([4]; CT26, 200 mg/kg BID) of the same compound?
Answer: 41%

Question: What about the “% TGI (D20)” value ([4]; CT26, 200 mg/kg BID) of the same compound?
Answer: 34%

Question: And the “% TGI (D15)” value ([4]; CT26, 600 mg/kg BID)?
Answer: 36%

Question: What about the “% TGI (D17)” value ([4]; CT26, 600 mg/kg BID) of the same compound?
Answer: 51%

Question: And the “% TGI (D20)” value ([4]; CT26, 600 mg/kg BID)?
Answer: 38%

Question: And the “Kynurenine concentration (ng/g tumor) Average ± SEM” value [5]?
Answer: 876 ± 68 ng/g tumor

Question: What about the “reduction of Kynurenine concentration” value [5] of the same compound?
Answer: 59%

Question: What about the “Mean tumor volume on day 25” value [6] of the same compound?
Answer: 443.7 mm^3

Question: What about the “TGI (Tumor growth inhibition)” value ([6]; day 25) of the same compound?
Answer: 43.4%
